Test results reported in patent US20260294922A1, “Inhibitors of JUN N-Terminal Kinases (JNK1, JNK2, and/or JNK3) and Mitogen-Activated Protein Kinases (MAPK8, MAPK9, and/or MAPK10) and Methods of Using Same” (Baylor College of Medicine, priority 2023, published 2026).
“Also recorded” adds a separate entry of the source.

Columns and labels:
[1] = test system: 12Z endometriotic epithelial cells; assay: IL-1β-stimulated pro-inflammatory gene expression (qPCR) in 12Z cells; format: cell-based, human; settings: relative to bentamapimod
From the text: These studies indicate that NanoBRET assays are an innovative technical platform to measure target engagement of CDD JNK inhibitors with the target JNK1, JNK2 or JNK3. As further evidence that JNK inhibitors address disease-relevant endpoints, biological responses of JNK inhibitors are provided herein, as measured in target tissue cellular models. 12Z immortalized endometriotic epithelial cells and patient-derived endometriotic stromal cells have been cultured with reference compound bentamapimod, CDD-2628, and CDD-2728. To exemplify the effects of CDD-2628 and CDD-2728 in the endometrial cell cultures, gene expression was measured using qPCR (expressed as fold-change relative to GAPDH, a housekeeping gene that is not affected by culture treatment effects) that reflect synthesis of inflammatory lipids (PTGS2), transformation of cells to a more migration and invasive potential (MMP-3) and chemoattractant cytokines to recruit pro-inflammatory immune cells (IL-6, IL-8).
In the culture systems employed in FIGS. 12A-12J, FIGS. 13A-13B, FIGS. 14A-14H, FIGS. 15A-15H, and FIGS. 16A-16F, the treatment of cells with IL-1β is used to mimic the peritoneal environment where IL-1β is most frequently measured at higher concentrations in patients with endometriosis (0.1 ng/mL-1 ng/mL) than in unaffected women (<0.01 ng/mL). The use of IL-1β to mimic the pro-inflammatory environment is a common method in cellular assays for endometriosis research. Although the concentrations of IL-1β in these cell cultures are higher than measured in peritoneal fluid, there are multiple other pro-inflammatory cytokines in peritoneal fluid that contribute to the pro-inflammatory environment.
Specifically, 12Z cells were plated at a density of 1×10^5 cells/well in a 12-well tissue culture plate, serum-starved overnight (17-18 h), pre-treated with vehicle (DMSO) or JNK inhibitor for 30 minutes, then stimulated with 10 ng/ml IL-1β in the presence or absence of the JNK inhibitors for 6 hours. After the 6-hour treatment, mRNA was extracted from the cells using the Qiagen RNEasy mini isolation kit and […] of mRNA was reverse transcribed into cDNA using the qScript cDNA Supermix (Quanta Biosciences). cDNA was amplified using SYBR Green Master Mix (Applied Biosystems) with quantitative Real Time PCR (BioRad CFX) using pre-designed and validated primers specific for genes encoding IL6, IL8, PTGS2/COX2, and MMP3 (BioRad). Relative quantification of these specific genes was calculated by the ΔΔCt method, normalizing their abundance relative to the internal housekeeping gene, GAPDH, followed by quantification relative to the vehicle-treated cells. Statistical analyses and visualizations were performed using a One Way ANOVA with a Tukey's multiple comparison post-hoc test on GraphPad Prism version 9.

JNK1 [2] = target: T1, JNK1 (Homo sapiens, UniProt P45983); assay: JNK1 kinase (intrinsic ATPase, Kinase-Glo) assay; format: biochemical; settings: Table 3b; read-out: Ki(app) JNK1
T1 sequence (P45983 whole entry): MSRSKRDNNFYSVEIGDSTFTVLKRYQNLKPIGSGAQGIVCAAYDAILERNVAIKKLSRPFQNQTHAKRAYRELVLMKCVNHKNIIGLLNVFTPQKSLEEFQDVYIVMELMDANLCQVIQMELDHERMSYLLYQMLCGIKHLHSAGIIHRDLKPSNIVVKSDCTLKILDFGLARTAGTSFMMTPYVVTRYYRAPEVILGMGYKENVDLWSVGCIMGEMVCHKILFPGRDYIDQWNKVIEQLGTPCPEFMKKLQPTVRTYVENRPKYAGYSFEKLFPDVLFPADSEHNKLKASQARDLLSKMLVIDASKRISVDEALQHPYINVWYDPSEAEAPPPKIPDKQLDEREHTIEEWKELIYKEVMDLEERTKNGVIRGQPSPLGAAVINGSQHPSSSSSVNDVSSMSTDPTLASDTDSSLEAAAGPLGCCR
Outline: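 Full-length construct not stated; kinases hydrolyse ATP without peptide substrate, reaction run 30 or 60 min at 30° C, remaining ATP read by Kinase-Glo luminescence with no-kinase controls. Apparent Ki from normalized fractional activities fitted to modified Morrison tight-binding equation; orthogonal LanthaScreen binding assay gave IC50.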

[3] = Phase 1 volunteers / IPF; cited from earlier work
JNK2 = JNK2 (Homo sapiens, UniProt P45984); assay: JNK2 kinase (intrinsic ATPase, Kinase-Glo) assay; format: biochemical; settings: Table 3b; read-out: Ki(app) JNK2
Chain of JNK2 (P45984 whole entry): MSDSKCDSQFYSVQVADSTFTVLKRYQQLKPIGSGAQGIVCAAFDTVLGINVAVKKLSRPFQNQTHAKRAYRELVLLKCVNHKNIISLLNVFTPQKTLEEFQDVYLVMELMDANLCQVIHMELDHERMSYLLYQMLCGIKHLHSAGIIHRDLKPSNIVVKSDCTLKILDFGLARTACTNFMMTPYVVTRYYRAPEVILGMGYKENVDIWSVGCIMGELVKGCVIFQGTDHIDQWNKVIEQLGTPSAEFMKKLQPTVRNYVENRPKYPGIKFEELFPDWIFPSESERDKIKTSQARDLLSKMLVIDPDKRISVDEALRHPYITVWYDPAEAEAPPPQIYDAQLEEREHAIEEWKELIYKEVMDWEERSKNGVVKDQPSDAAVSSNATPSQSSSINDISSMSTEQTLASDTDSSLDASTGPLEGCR

480 kinases = assay: Eurofins KINOMEscan selectivity profile; format: binding; settings: Bentamapimod and Tanzisertib at 1 μM; listed as BEND
JNK3 (MAPK10) = target: T2, JNK3 (MAPK10) (Homo sapiens, UniProt P53779); assay: Eurofins KdSelect, JNK3 (MAPK10); format: binding; settings: Table 2; IC50 nM; read-out: JNK3 (MAPK10), based on Kd select results
T2 construct: purchased Eurofins (KdSelect service)
T2 sequence (P53779 whole entry): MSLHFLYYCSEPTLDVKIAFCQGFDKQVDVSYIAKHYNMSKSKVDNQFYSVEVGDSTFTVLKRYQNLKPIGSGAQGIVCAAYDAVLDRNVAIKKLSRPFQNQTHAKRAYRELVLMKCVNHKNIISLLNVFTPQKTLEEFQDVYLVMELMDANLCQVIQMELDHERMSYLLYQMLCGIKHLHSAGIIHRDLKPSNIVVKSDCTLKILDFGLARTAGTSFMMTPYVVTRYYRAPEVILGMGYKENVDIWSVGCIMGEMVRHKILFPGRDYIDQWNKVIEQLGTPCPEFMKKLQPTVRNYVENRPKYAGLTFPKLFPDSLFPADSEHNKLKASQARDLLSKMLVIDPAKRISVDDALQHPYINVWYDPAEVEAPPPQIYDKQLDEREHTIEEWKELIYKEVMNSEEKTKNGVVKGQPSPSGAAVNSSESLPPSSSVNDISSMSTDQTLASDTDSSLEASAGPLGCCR

JNK1 [4] = target: T1, JNK1; assay: Promega NanoBRET intracellular target engagement (tracer K10 displacement), JNK1; format: cell-based; settings: cyano group
Other MAPK = assay: Eurofins KdSelect, other MAPK; format: binding; settings: Table 2; IC50 nM; read-out: Other MAPK, based on Kd select results
From the text: The next step was to confirm that the compounds that bound to JNK1, JNK2 or JNK3 in a competitive manner, relative to bentamapimod, were inhibitors of the ATP-dependent kinase activity in assays. In many cases, the results have been replicated at ThermoFisher using their SelectScreen technology platform. Based on knowledge about JNK inhibitors, and the results of DEC-Tec selections, a target compound profile was developed (Table 2).
The efficacy and selectivity of BEND and TANZ were used to define a realistic preliminary target compound profile (Table 2) for the next generation of JNK1-3 inhibitors for the treatment of endometriosis.

JNK1 (MAPK8) = target: T3, JNK1 (MAPK8) (Homo sapiens, UniProt P45983); assay: Eurofins KdSelect, JNK1 (MAPK8); format: binding; settings: Table 2; IC50 nM; read-out: JNK1 (MAPK8), based on Kd select results
T3 construct: purchased Eurofins (KdSelect service)
T3 sequence (P45983 whole entry): as the sequence (P45983 whole entry) above

MEK4 = target: T4, MEK4 (Homo sapiens, UniProt P45985); assay: KINOMEscan, MEK4; format: binding
T4 construct: purchased ThermoFisher (SelectScreen)
T4 sequence (P45985 1-399): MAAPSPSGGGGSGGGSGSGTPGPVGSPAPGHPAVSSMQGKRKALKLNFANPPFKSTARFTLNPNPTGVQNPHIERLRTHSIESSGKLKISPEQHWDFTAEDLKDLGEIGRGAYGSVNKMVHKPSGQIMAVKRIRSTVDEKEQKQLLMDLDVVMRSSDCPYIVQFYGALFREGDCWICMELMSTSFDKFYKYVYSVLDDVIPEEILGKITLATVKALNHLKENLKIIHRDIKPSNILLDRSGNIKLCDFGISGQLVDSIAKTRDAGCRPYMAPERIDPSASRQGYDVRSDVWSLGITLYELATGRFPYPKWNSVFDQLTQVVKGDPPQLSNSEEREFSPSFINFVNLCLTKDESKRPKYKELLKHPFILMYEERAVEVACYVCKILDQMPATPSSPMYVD

JNK3 = JNK3 (Homo sapiens, UniProt P53779); assay: JNK3 kinase (intrinsic ATPase, Kinase-Glo) assay; format: biochemical; settings: Table 3b; read-out: Ki(app) JNK3
Chain of JNK3 (P53779 whole entry): as the sequence (P53779 whole entry) above

JNK2 (MAPK9) = target: T5, JNK2 (MAPK9) (Homo sapiens, UniProt P45984); assay: Eurofins KdSelect, JNK2 (MAPK9); format: binding; settings: Table 2; IC50 nM; read-out: JNK2 (MAPK9), based on Kd select results
T5 construct: purchased Eurofins (KdSelect service)
T5 sequence (P45984 whole entry): as the sequence (P45984 whole entry) above

Ki (JNK1 [2]): 220 nM | Ki (JNK2): 640 nM | Kd (JNK3 (MAPK10)): 130 nM | interference with NanoBRET readout (JNK1 [4]): interferes with the assay readout | Kd (Other MAPK): > 1000 nM | Kd (JNK1 (MAPK8)): 270 nM | MEK4 inhibition in KINOMEscan (MEK4): does not inhibit MEK4 | Ki (JNK3): 39 nM | Kd (JNK2 (MAPK9)): 170 nM
SMILES: N#CC(c1ccnc(OCc2ccc(CN3CCOCC3)cc2)n1)c1nc2ccccc2s1 (centres unmarked) [CDD-939, bentamapimod]
PTGS2 expression [1]: concentration-dependent decreases | IL-6 expression ([1]; listed as Bentamapimod): concentration-dependent decreases | IL-6 expression ([1]; listed as bentamapimod): equally effective | clinical safety [3]: deemed safe | KINOMEscan selectivity / inhibition (480 kinases): JNK1-3 (CMGC family), were inhibited; also recorded: highly selective
